Measurements from ChEMBL document CHEMBL1131254, “Molecular modeling studies of the DNA-topoisomerase I ternary cleavable complex with camptothecin” (J Med Chem, 1998).
Active and inactive are the calls of the source. The calls are words filed in the database; no cut-off is given here.

How the values were obtained:
Assay type in all cases: functional
[1] = target: T1, DNA topoisomerase 1 (Homo sapiens) (UniProt P11387); experiment: The compound was tested for top1-induced DNA cleavage activity; - indicates inactive
T1 sequence (whole entry): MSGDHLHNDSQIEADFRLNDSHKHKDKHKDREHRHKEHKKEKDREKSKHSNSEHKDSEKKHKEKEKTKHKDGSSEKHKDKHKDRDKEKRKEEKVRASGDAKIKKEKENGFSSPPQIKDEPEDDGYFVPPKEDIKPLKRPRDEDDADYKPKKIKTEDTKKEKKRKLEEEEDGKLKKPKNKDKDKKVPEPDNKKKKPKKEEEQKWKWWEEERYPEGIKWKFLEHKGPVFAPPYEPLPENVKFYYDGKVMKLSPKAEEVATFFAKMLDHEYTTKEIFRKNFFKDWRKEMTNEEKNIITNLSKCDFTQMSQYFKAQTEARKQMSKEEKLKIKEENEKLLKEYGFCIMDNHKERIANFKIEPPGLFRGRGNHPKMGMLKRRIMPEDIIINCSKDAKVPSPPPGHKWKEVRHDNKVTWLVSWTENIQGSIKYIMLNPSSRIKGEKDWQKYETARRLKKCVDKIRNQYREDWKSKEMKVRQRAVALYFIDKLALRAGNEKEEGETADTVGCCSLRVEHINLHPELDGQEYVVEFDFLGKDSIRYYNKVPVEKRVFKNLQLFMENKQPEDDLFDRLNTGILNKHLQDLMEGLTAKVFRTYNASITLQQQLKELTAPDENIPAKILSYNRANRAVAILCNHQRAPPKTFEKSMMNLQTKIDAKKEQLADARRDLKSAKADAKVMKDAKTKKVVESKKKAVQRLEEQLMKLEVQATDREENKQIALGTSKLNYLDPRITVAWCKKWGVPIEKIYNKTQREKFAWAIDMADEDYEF

[2] = target: T1, DNA topoisomerase 1 (Homo sapiens); experiment: The compound was tested for top1-induced DNA cleavage activity; ++ indicates more potent than CPT
[3] = target: T1, DNA topoisomerase 1 (Homo sapiens); experiment: The compound was tested for top1-induced DNA cleavage activity; + indicates comparable to CPT

| SMILES | inhibition [1] | further results |
| --- | --- | --- |
| CC[C@@]1(O)C(=O)OCc2c1ccc1c2Cc2cc3ccccc3nc2-1 | inactive |  |
| CC[C@@]1(O)C(=O)OCc2c1cc1n(c2=O)Cc2cc3cc(OC)c(OC)cc3nc2-1 (stereo in doubt; form 1) | inactive |  |
| CC[C@@]1(O)C(=O)OCc2c1cc1n(c2=O)Cc2cc3cc(N)c(O)cc3nc2-1 |  | inhibition [2]: more potent than CPT |
| CC[C@@]1(O)C(=O)OCc2c1cc1n(c2=O)Cc2c-1nc1cnc(CN)cc1c2C |  | inhibition [3]: comparable to CPT |
| CC[C@@]1(O)C(=O)OCc2c1cc1n(c2=O)Cc2cc3cc(OC)c(OC)cc3nc2-1 (stereo in doubt; form 2) | inactive |  |
| CC[C@@]1(O)C(=O)OCc2c1cc1n(c2=O)Cc2c-1nc1cc3c(cc1c2CN1CCN(C)CC1)OCO3 |  | inhibition [2]: more potent than CPT |
| CC[C@H]1C(=O)OCc2c1cc1n(c2=O)Cc2cc3ccccc3nc2-1 | inactive |  |
| CC[C@@]1(O)C(=O)OCc2cc3c(cc21)-c1nc2ccccc2cc1C3 | inactive |  |
| CC[C@]1(O)C(=O)OCc2c1cc1n(c2=O)Cc2cc3ccccc3nc2-1 | inactive |  |
| CC[C@@]1(O)C(=O)OCc2c1cc1n(c2=O)Cc2c-1nc1cc3c(cc1c2CN1CCN(C)CC1)OCCO3 |  | inhibition [2]: more potent than CPT |
| CC[C@@]1(O)C(=O)OCc2c1cc1n(c2=O)Cc2cc3cc(OC)c(OC)cc3nc2-1 (stereo in doubt; form 3) | inactive |  |
